In patent US8367584B2, “Naphthalene isoxazoline compounds for control of invertebrate pests” (E.I. du Pont de Nemours and Company, priority 2007, dated 2013):

Experiments:
Format in all cases: in vivo
[1] = tested on: diamondback moth (Plutella xylostella); assay: Test A: control of diamondback moth on radish plant, foliar spray; conditions: sprayed at 50 ppm; neonate larvae on radish plant; held 6 days at 25° C.; three replicates
From the text: For evaluating control of diamondback moth (Plutella xylostella), the test unit consisted of a small open container with a 12-14-day-old radish plant inside. This was pre-infested with about 50 neonate larvae that were dispensed into the test unit via corn-cob grits using a bazooka inoculator. The larvae moved onto the test plant after being dispensed into the test unit.
(§1) Test compounds were formulated using a solution containing 10% acetone, 90% water and 300 ppm X^77™ Spreader Lo-Foam Formula non-ionic surfactant containing alkylarylpolyoxyethylene, free fatty acids, glycols and isopropanol (Loveland Industries, Inc. Greeley, Colo., USA). The formulated compounds were applied in 1 mL of liquid through a SUJ2 atomizer nozzle with 1/8 JJ custom body (Spraying Systems Co. Wheaton, Ill., USA) positioned 1.27 cm (0.5 inches) above the top of each test unit. All experimental compounds in this test were sprayed at 50 ppm, and the test was replicated three times. After spraying of the formulated test compound, each test unit was allowed to dry for 1 h and then a black, screened cap was placed on top. The test units were held for 6 days in a growth chamber at 25° C. and 70% relative humidity. Plant feeding damage was then visually assessed based on foliage consumed and a pest mortality rating was also counted and calculated for each test unit.

[2] = tested on: potato leafhopper (Empoasca fabae); assay: Test C: control of potato leafhopper through contact and/or systemic means on Soleil bean plant; conditions: 144 h, sprayed at 250 ppm, adults on Soleil bean plant, held 6 days at 19-21° C., three replicates, read-out: control efficacy: mortality
Experimental: as §1
For evaluating control of potato leafhopper (Empoasca fabae) through contact and/or systemic means, the test unit consisted of a small open container with a 5-6-day-old Soleil bean plant (primary leaves emerged) inside. White sand was added to the top of the soil and one of the primary leaves was excised prior to application. Test compounds were formulated and sprayed as described for Test A. All experimental compounds in these tests were sprayed at 250 ppm, and the test was replicated three times. After spraying, the test units were allowed to dry for 1 hour before they were post-infested with 5 potato leafhoppers (18-21-day-old adults). A black, screened cap was placed on the top of the cylinder. The test units were held for 6 days in a growth chamber at 19-21° C. and 50-70% relative humidity. The control efficacy of each test unit was then visually assessed by the insect mortality.

[3] = tested on: fall armyworm (Spodoptera frugiperda); assay: Test B: control of fall armyworm on corn (maize) plant, foliar spray; conditions: sprayed at 50 ppm; 1-day-old larvae on corn (maize) plant; three replicates
Experimental: as §1
For evaluating control of fall armyworm (Spodoptera frugiperda), the test unit consisted of a small open container with a 4-5-day-old corn (maize) plant inside. This was pre-infested (using a core sampler) with 10-15 1-day-old larvae on a piece of insect diet. Test compounds were formulated and sprayed at 50 ppm as described for Test A, and the test was replicated three times. After spraying, the test units were maintained in a growth chamber and then the control efficacy was rated for each test unit as described for Test A.

[4] = tested on: silverleaf whitefly (Bemisia tabaci); assay: Test F: control of silverleaf whitefly on cotton plant; conditions: 144 h, sprayed at 250 ppm, 2nd and 3rd instar nymphs on cotton plant, held 6 days, three replicates, read-out: control efficacy: mortality
Experimental: For evaluating control of silverleaf whitefly (Bemisia tabaci), the test unit consisted of a 14-21-day-old cotton plant grown in Redi-earth® media (Scotts Co.) with at least two true leaves infested with 2nd and 3rd instar nymphs on the underside of the leaves.
Test compounds were formulated in no more than 2 mL of acetone and then diluted with water to 25-30 mL. The formulated compounds were applied using a flat fan air-assisted nozzle (Spraying Systems 122440) at 10 psi (69 kPa). Plants were sprayed to run-off on a turntable sprayer (patent publication EP-1110617-A1). All experimental compounds in this screen were sprayed at 250 ppm, and the test was replicated three times. After spraying of the test compound, the test units were held for 6 days in a growth chamber at 50-60% relative humidity and 28° C. daytime and 24° C. nighttime temperature. Then the leaves were removed and then dead and live nymphs were counted to calculate percent mortality.

[5] = tested on: green peach aphid (Myzus persicae); assay: Test E: control of green peach aphid through contact and/or systemic means on radish plant; conditions: 144 h, sprayed at 250 ppm, aphids on radish plant, held 6 days at 19-21° C., three replicates, read-out: control efficacy: mortality
Experimental: Test compounds were formulated using a solution containing 10% acetone, 90% water and 300 ppm X^77™ Spreader Lo-Foam Formula non-ionic surfactant containing alkylarylpolyoxyethylene, free fatty acids, glycols and isopropanol (Loveland Industries, Inc. Greeley, Colo., USA). The formulated compounds were applied in 1 mL of liquid through a SUJ2 atomizer nozzle with 1/8 JJ custom body (Spraying Systems Co. Wheaton, Ill., USA) positioned 1.27 cm (0.5 inches) above the top of each test unit. All experimental compounds in this test were sprayed at 50 ppm, and the test was replicated three times. After spraying of the formulated test compound, each test unit was allowed to dry for 1 h and then a black, screened cap was placed on top. The test units were held for 6 days in a growth chamber at 25° C. and 70% relative humidity. Plant feeding damage was then visually assessed based on foliage consumed and a pest mortality rating was also counted and calculated for each test unit. […]
Test compounds were formulated and sprayed as described for Test A. All experimental compounds in these tests were sprayed at 250 ppm, and the test was replicated three times. […] Each test unit was then visually assessed for insect mortality.

[6] = tested on: western flower thrip (Frankliniella occidentalis); assay: Test D: control of western flower thrip through contact and/or systemic means on Soleil bean plant; conditions: sprayed at 250 ppm; adult thrips on Soleil bean plant; held 6 days at 25° C.; three replicates
Experimental: as §1
For evaluating control of the western flower thrip (Frankliniella occidentalis) through contact and/or systemic means, the test unit consisted of a small open container with a 5-7-day-old Soleil Bean plant inside. […] A mortality rating was assessed along with a plant damage rating for each test unit.

Compound	control efficacy (20% or less feeding damage or 80% or more mortality) [1]	mortality at 250 ppm [2]	control efficacy (20% or less feeding damage or 80% or more mortality) [3]	mortality at 250 ppm [4]	mortality at 250 ppm [5]	control efficacy (20% or less feeding damage or 80% or more mortality) [6]
O=C(NCc1ccc(C2=NOC(c3cc(Cl)cc(Cl)c3)(C(F)(F)F)C2)c2ccccc12)C1CC1 (stereo not shown) [Compound 1, N-[[4-[5-(3,5-dichlorophenyl)-4,5-dihydro-5-(trifluoromethyl)-3-isoxazolyl]-1-naphthalenyl]methyl]cyclopropanecarboxamide]	very good to excellent levels of control efficacy	≥ 80%	very good to excellent levels of control efficacy			
CC(C)C(=O)NCc1ccc(C2=NOC(c3cc(Cl)cc(Cl)c3)(C(F)(F)F)C2)c2ccccc12 (stereo not shown) [Compound 2]	very good to excellent levels of control efficacy	≥ 80%	very good to excellent levels of control efficacy	≥ 80%	≥ 80%	
N#CC(NC(=O)C1CC1)c1ccc(C2=NOC(c3cc(Cl)cc(Cl)c3)(C(F)(F)F)C2)c2ccccc12 (stereo not shown) [Compound 3]	very good to excellent levels of control efficacy					very good to excellent levels of control efficacy
CC(C)C(=O)NC(C)c1ccc(C2=NOC(c3cc(C(F)(F)F)cc(C(F)(F)F)c3)(C(F)(F)F)C2)c2ccccc12 (stereo not shown) [Compound 4]	very good to excellent levels of control efficacy					
CC(C)C(=O)NCc1ccc(C2=NOC(c3cc(Cl)cc(C(F)(F)F)c3)(C(F)(F)F)C2)c2ccccc12 (stereo not shown) [Compound 5]	very good to excellent levels of control efficacy	≥ 80%	very good to excellent levels of control efficacy	≥ 80%	≥ 80%	
O=C(NCc1ccc(C2=NOC(c3cc(Cl)cc(C(F)(F)F)c3)(C(F)(F)F)C2)c2ccccc12)C1CC1 (stereo not shown) [Compound 6]	very good to excellent levels of control efficacy	≥ 80%	very good to excellent levels of control efficacy			
